This is an account of results in patent US7943139B2, “Methods of generating a humoral immune response against human immunodeficiency virus (HIV) comprising administering Nef apoptotic motif-containing polypeptide-conjugates” (priority 2004, dated 2011).

Where no end group is shown, it is not given here.

One assay deals with Jurkat cell cultures. The experiment in a line: Nef peptide apoptosis screen (TUNEL). It is filed as cell-based. The note with it: 24 hours; for apoptosis induced by Nef 20 mer peptides: 10 ng/ml. The protocol:
Apoptosis generates DNA free ends which can be labeled in situ using terminal deoxynucleotidyl-transferase (TdT), incorporating an exogenously added labeled nucleotide to the DNA strand. This label can then be visualized directly by fluorescence or indirectly using anti-FITC-peroxidase, and a calorimetric assay. Cells on coverslips were washed with PBS, and fixed for 30 minutes at RT with 4% paraformaldehyde, in PBS, pH 7.4. They were then washed with PBS, and permeabilized with 0.1% Triton X-100 for 10 minutes at room temperature (RT). The slides were rinsed twice with PBS, and air dried for 2 minutes. Then, we followed precisely the manufacturers procedure for TUNEL staining the slides (manufacturer's procedure for the In Situ Cell Death Detection Kit, AP; Boehringer Mannheim, Indianapolis, Ind.). Total cell counts were determined by counterstaining fixed cultures with 20 μg/ml of Hoechst 33258. All specimens were observed by epifluorescence on a computer-controlled microscope system based on a Zeiss Axioskop microscope (Carl Zeiss, Thornwood, N.Y.), and the images were obtained and examined using a charged coupled device (CCD) camera, MagnaFire, model S99806 (Olympus American, Melville, N.Y.). Images were examined using Image-Pro Plus 4.1 for Windows (Media Cybernetics, Silver Springs, Md.) software.
Nef peptides retain much of the binding and signaling activity of the full molecule. A set of 20 mer peptides with 10 aa overlaps, spanning the Nef protein (205 aa), were obtained from the AIDS Reagent Program. Jurkat cell cultures were exposed to each of the Nef peptides at 10 ng/ml for 24 hours, and screened for apoptosis. One peak of apoptosis was observed spanning peptide aa31-50 to […], peaking at aa41-60 and aa51-70. […] Two regions of the Nef protein that induce apoptosis were identified; (1) a major apoptotic peak centering on aa50-60 (motif 1); (2) a minor peak centering on aa170-180 (motif 2). (aa sequence from HIV-1B clade NL403, Ass. No. AF070521) To determine the specificity of the apoptotic motifs, two 11 mer peptides spanning motif 1, were made, one with the correctly ordered sequence (Nef Motif 1-[…]) (Seq. ID No. 17), and the other with the correct amino acids scrambled in random order (Nef scMotif 1-[…]) (Seq. ID No. 18). Jurkat cell cultures were exposed to each of the two peptides at 8 ng/ml for 24 hours, and screened for apoptosis by TUNEL assay. Nef Motif 1 peptide induced 82% of the apoptosis observed using the full Nef protein. […] Thus, (a) Nef aa50-60 is sufficient to bind and induce an apoptotic signal; (b) induction of apoptosis is primary sequence specific. In some of the studies disclosed herein the Nef Motif 1 having an extra acid, namely […] (Seq. ID No. 19) was administered. In this report, Seq. ID No. 17 and Seq. ID No. 19 are both referred to as M-1 or Nef Motif-1 peptide.

The test system of a further assay is thymus. The experiment in a line: Mouse thymus apoptosis after ip peptide for one month. The format is in vivo, mice. Conditions: ip injection for one month. On the procedure:
Nef motif 1 was administered to mice for one month by ip injection with either Nef motif 1 (Seq. ID No. 19), the 11 mer sequence or the scrambled apoptotic sequence Seq. ID No. 18. […] This provides further indication of the ability of the Nef protein to inhibit immune response related to CD4+ peripheral blood lymphocytes.

Another assay addresses T1, CXCR4 receptor (Homo sapiens, UniProt P61073).
T1 construct: transiently transfected with a CXCR4 cDNA clone; expressed in transfected cells; host or cells: MDA-MB-468 (human breast tumour line, lacks endogenous CXCR4), transient transfection
The experiment in a line: Fluorescent binding assay with Flc labeled M1 peptide on transfected MDA-MB-468 cells. The protocol:
Specific physical binding to CXCR4 was assayed. The above transfection experiment (MDA-MB-468 cultures either untransfected, or transiently transfected with a CXCR4 cDNA clone, empty vector, or CCR5 cDNA clone) was assayed in the fluorescent binding assay with the Flc labeled M1 peptide.

For another assay, the system named is peripheral lymphocytes. In words: KLH-M1 pre-immunization and Nef peptide challenge: PBL depletion and humoral response. The format is in vivo, mice. The protocol:
Nef Motif 1 peptides linked to keyhole limpet […] (KLH) were administered to 9 mice. Subsequently, the pre-immunized mice and the naive mice were either unchallenged or challenged with Nef peptide for a month. The mice were sacrificed and the PBLs collected.

T1 sequence (P61073 whole entry): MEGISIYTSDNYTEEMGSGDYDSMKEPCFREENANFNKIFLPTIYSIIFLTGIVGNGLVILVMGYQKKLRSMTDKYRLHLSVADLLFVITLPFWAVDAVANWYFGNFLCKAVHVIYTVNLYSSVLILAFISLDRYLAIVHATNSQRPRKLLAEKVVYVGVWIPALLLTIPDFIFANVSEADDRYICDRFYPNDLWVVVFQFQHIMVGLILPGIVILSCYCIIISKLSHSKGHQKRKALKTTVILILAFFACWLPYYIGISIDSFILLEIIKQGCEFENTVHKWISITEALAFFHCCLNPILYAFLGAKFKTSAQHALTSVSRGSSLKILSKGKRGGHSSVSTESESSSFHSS

On to “ALAETCQNAWA [Nef scMotif 1, Motif 1 amino acids scrambled in random order, reference compound]”, for which the “apoptosis (TUNEL)” value in the assay on Jurkat cell cultures (8 ng/ml, compared with untreated control) is on record as “only background levels of apoptosis”. For the same substance, the “apoptosis in the thymus” value with thymus is “No apoptosis”.
In the case of “Flc-M1 peptide: Flc labeled M1 peptide used in the fluorescent binding assay (NAACAWLEAQ; also: Flc label, place not given here)”, the “binding of the Flc-M1 peptide” value with CXCR4 receptor (MDA-MB-468 cells transiently transfected with CCR5 cDNA) is “refractory to binding”; with CXCR4 receptor (MDA-MB-468 cells transiently transfected with empty vector), “refractory to binding”; with CXCR4 receptor (MDA-MB-468 cells transiently transfected with the CXCR4 clone), “significant binding”; with CXCR4 receptor (untransfected MDA-MB-468 cells), “refractory to binding”.
Consider “NAACAWLEAQ [Nef Motif 1, Peptide spanning apoptotic motif 1 (aa50-60) of HIV-1 Nef]”, for which the “apoptosis relative to that observed using the full Nef protein” value with Jurkat cell cultures (8 ng/ml, TUNEL) was 82%. Besides, the peripheral lymphocyte depletion entry with peripheral lymphocytes (mice challenged with Nef peptide for a month, PBLs collected) is listed as “induced peripheral lymphocyte depletion”. Also, in the assay on peripheral lymphocytes (mice, naive or pre-immunized), the “protective humoral response against the Nef epitope” value was “did not stimulate a resultant protective humoral response”.
Take “TNAACAWLEAQ [Nef motif 1 (Seq. ID No. 19)]”: in the assay with thymus, the “apoptosis in the thymus” value is “Significant apoptosis”.
In the case of “aa41-60: Nef 20 mer overlapping peptide, residues 41-60, AIDS Reagent Program (GAITSSNTAATNAACAWLEA; UniProt P04601 41-60, looked up, fragment)”, in the assay on Jurkat cell cultures, the “apoptosis induced by Nef 20 mer peptides” value is on record as “peaking”.
The same measure, in the same setting: for “aa51-70: Nef 20 mer overlapping peptide, residues 51-70, AIDS Reagent Program” the value was “peaking”.
“aa161-180: Nef 20 mer overlapping peptide, residues 161-180, AIDS Reagent Program (NTSLLHPVSLHGMDDPEREV; UniProt P04601 161-180, looked up, fragment)”: the “apoptosis induced by Nef 20 mer peptides” value in the assay on Jurkat cell cultures is recorded as “second, smaller apoptotic peak”.
“aa171-190: Nef 20 mer overlapping peptide, residues 171-190, AIDS Reagent Program (HGMDDPEREVLEWRFDSRLA; UniProt P04601 171-190, looked up, fragment)”: in the assay on Jurkat cell cultures, the “apoptosis induced by Nef 20 mer peptides” value is listed as “second, smaller apoptotic peak”.
